Values of other authors as cited in patent publication US6582919B2, “Method of determining epidermal growth factor receptor and HER2-neu gene expression and correlation of levels thereof with survival rates” (Response Genetics, Inc., priority 2001, dated 2003).

What was measured:
[1] = test system: EGFR expressing human mammary carcinoma cells; details: cells injected into athymic nude mice (Toi et al. 1990)
[2] = test system: tumors not expressing EGFR; details: Toi et al. 1990

**Q.** Which “growth of EGFR expressing human mammary carcinoma cells” value [1] does the source give for `O=CN/C=C/c1cc(O)ccc1O` [erbstatin] here?
**A.** reduced the growth

**Q.** And the “growth of tumors not expressing EGFR” value [2]?
**A.** no effect
